From US11465989B2, “Guanidine compounds and use thereof” (IMMUNOMET THERAPEUTICS INC., priority 2014, dated 2022)
Where a name gives a salt, the structure may show the parent alone.

What was measured:
[1] = test system: A549 cells; test: Inhibition of OCR (XF Analyzer); type: cell-based; details: Homo sapiens, A549, 24 h
Excerpt: The electron transfer complex in mitochondria is composed of 5 complexes. The complex I accept electrons from NADH produced from glycolysis and TCA cycle and the electrons move to complex […] and the electron is finally transferred to O2 and water molecule is generated. During the electron transfer, proton gradient is generated and the chemical gradient is a driving source to synthesize ATP at complex V. The mitochondrial inhibition of complex I indirectly assessed by measuring the oxygen consumption rate (OCR) at complex IV. […] The solution outside of cells becomes acidic (lower pH) as lactate is transported to outside of cells. OCR and Extracellular acidification rate (ECAR) are determined by XF Analyzer (Seahorse Biosciences).
A549 cells were purchased from American Type Tissue Culture Collection ([…]) and cultured in RPMI 1640 supplied with 10% fetal bovine serum (FBS) and antibiotic-antimycotic (Lifetech, CA). A549 cells were separated with 0.5% Trypsin-EDTA and 3,000 cells were plated on 1 mg/ml poly-D-lysine (Sigma, P6407) coated XF 96 well […]. A549 cells were allowed to adhere to the wells for 24 hours under the condition of temperature, 37° C. and 5% CO2 The sensor cartridge of XF Analyzer was soaked in 200 Ad of Calibrant solution (Seahorse, MA) in a clear 96-well plate at 37° C. for 24 hours. The compounds of the present invention were diluted with RPMI 1640 without FBS, transferred to A549 cells on XF 96 well plate, and incubated further for 23 hours at 37° C. and 5% CO2. After incubation, the compound solution was exchanged with pre-warmed and pH adjusted (pH7.4) XF assay media (Seahorse) supplied with 15 mM D-glucose (Sigma), 15 mM sodium pyruvate (Lifetechnologies, CA) and 4 mM L-glutamine (Lifetechnologies, CA). The compounds of present invention were prepared in XF Assay media and added to the assay plate. The assay plate was equilibrated in XF Analyzer for 1 hour, and the reading were started by sensor cartridge. The cytotoxicity assay was followed using Cyquant (Lifetechnologies, CA) in order to calibrate the inhibition with cytotoxicity of compounds. The concentrations of the compounds were tested at […] and IC50 value was obtained from the inhibited values. That is, from OCR inhibition values at each concentration of the compound, IC50 was calculated according to Prism's dose response curve fitting.
In Table 1, the levels of OCR IC50 are evaluated by the following.

[2] = test system: A549 cells; test: In vitro combination study with Dasatinib on A549 cell; type: cell-based; details: in combination with 0.05 μM of Dasatinib, 72-hour treatment
Method: (§1) A549, H1975 (CRL5908, ATCC) or U937 cell (CRL1593.2™, ATCC) lines were cultured in RPMI 1640 media (Lifetechnologies, CA) with supplement of 10% FBS and antibiotic-antimycotic (Lifetechnologies, CA). Dasatinib (Combi-Blocks, San Diego, Calif.) is Bcr-Abl-tyrosine kinase inhibitor and Src family tyrosine kinase inhibitor approved for CML treatment. GDC094 (Selleckchem, Houston, Tex.) is a pan-PI3K inhibitor and effective in various cancer cells. H1975 or A549 cells were dissociated from culture plate using 0.5% trypsin-EDTA (Lifetechnologies, CA) and were suspended. U937 cells were spun down using centrifugation. […]
(§2) Among four concentrations of the compounds of present invention, the highest concentration was set to IC80 and the lowest concentration was approximately IC30. […] 100 μl of DMSO was added after removing MTT solution from each well, and were read by VICTOR X3 Multilabel Counter at the wavelength of 550 nm.
(§3) For the analysis of U937 cell viability, 20 μl of Celltiter96® AQueous one solution (MTS, Promega, Madison, Wis.) were added to each well, and plates were incubated at 37° C. and 5% CO2. After 2 hours later, plates read by VICTOR X3 Multilabel Counter at the wavelength of 490 nm. The combination index (CI value) was calculated using Calcusyn (Biosoft, UK).

[3] = test system: H1975 cell; test: In vitro combination study with Dasatinib on H1975 cell; type: cell-based; details: 0.2 μM of Dasatinib, 8 μM or 40 μM of Example 1, 40 μM or 200 μM of Example 104
Method: as §1, §2, §3

[4] = test system: U937 cell; test: In vitro combination study with GDC0941 on U937 cell; type: cell-based
Method: as §1, §2, §3

[5] = test system: A549 cell; test: In vitro combination study with GDC0941 on A549 cell; type: cell-based
Method: as §1, §2, §3

[6] = test system: SK-MEL-239 tumor cells; test: In vivo xenograft model using SK-MEL-239 cell; parameters: species or system mice
Method: The compounds of the present invention were evaluated in vivo using xenograft human cancer model in mice. The compounds of invention were administrated orally or interperitoneal injection. Tumor cell lines were cultured in vitro as monolayer culture. Using female BALB/c nude mice with immune system compromised, each mouse was inoculated subcutaneously at the right flank with tumor cells for tumor development. The treatment was started when the tumor size reaches approximately 100 mm^3
The SK-MEL-239 tumor cell line was maintained in vitro as monolayer in RPMII 640 medium supplemented with 10% heat inactivated fetal bovine serum, 100 U/ml penicillin and 100 μg/ml streptomycin, and L-glutamine (2 mM) at 37° C. in an atmosphere of 5% CO2 in air. The tumor cells were routinely subcultured twice weekly with 0.5% trypsin-EDTA treatment. The cells growing in an exponential growth phase were harvested and counted for tumor cell inoculation.
Female BALB/c nude mice aged 6-8 weeks and weighing approximately 18-22 g were purchased from Vital River. Each mouse was inoculated subcutaneously at the right flank with SK-MEL-239 tumor cells (1×10^7) in 0.1 ml of PBS for tumor development. The treatment was started, when the tumor size reaches approximately 100 mm^3. 100 mg/kg of Phenformin and 15 mg/kg of Vemurafenib were administered via oral gavage twice daily and 100 mg/kg HLPOI (HL176001001) was administered once daily for 21 days. Tumor volumes were measured twice a week in two dimensions using a caliper, and the volume was expressed in mm^3 using the formula: V=0.5×a×b^2, where a and b were the long and short diameters of the tumor, respectively. The T/C value (in percentage) was an indication of antitumor effect. T and C were the mean volumes of the treated and control groups, respectively.

[7] = Dosing 100 mg/kg, once daily, Day 28

N=C(N)NC(=N)NCCc1ccc(Cl)c(Cl)c1 [Example 1, N-1-(3,4-dichloro)phenethylbiguanide hydrochloride]
IC50 [1]: > 5 µM | CI value (combination index) [2]: 0.289 | combination therapy effect with Dasatinib [3]: low combination therapy effect | CI value (combination index) [4]: lower than 1 | CI value (combination index) [5]: lower than 1 | tumor volume compared to the control group ([6]; 100 mg/kg, Phenformin twice daily, Example 1 once daily): significant reduction of tumor volume | T/C (Day 28, %) [6, 7]: 65.4% | Tumor Volume (Day 28, mm^3, a) [6, 7]: 1,869 ± 82 mm^3 | tumor volume compared to the single administration of Vemurafenib ([6]; in combination with 15 mg/kg of Vemurafenib): reduced the tumor volume
